According to patent publication US9109041B2, “Analog compounds of analgesic peptides derived from the venom of crotalus durissus terrificus snakes, their uses, compositions, methods of preparation and purification” (priority 2004, dated 2015):

Legend:
[1] = test system: allodynia induced by the Walker 256 tumor; experiment: allodynia induced by the Walker 256 tumor (cancer pain); format: in vivo, rat; conditions: saline + antagonist alone i.pl. (ICI 10, nor-BNI 50, CTOP 20 μg/paw); for paw withdrawal threshold (allodynia), FM / paw withdrawal threshold (allodynia), IM: 5th day; for paw withdrawal threshold (allodynia), FM: 2 hours after treatment; for paw withdrawal threshold (allodynia), IM: before treatment; for paw withdrawal threshold (allodynia), BM: before injection of the tumor
Description: The Walker 256 tumor cells were kindly provided by Prof. Dr. Rui Curi, of the Physiology and Biophysics Department of the Biomedical Science Institute of the University of São Paulo. The tumor-bearing animal was sacrificed and the tumoral tissue was removed, placed on a Petri dish containing 0.9% saline. Then, the tumor was cut in smaller parts, and transferred into a beaker containing saline. The material was triturated with a fine-cut, until the tumor is totally fragmented. Then, this material was filtered in gauze and the liquid collected in a beaker. All procedures were performed on ice. The material of the beaker was transferred to 50 ml plastic tubes and centrifuged at 4° C., for 10 minutes, at 1200 rpm. After centrifugation, the supernatant was rejected and the precipitate resuspended in saline 0.9%. For cell counts, the suspension of cells was diluted (1:100) in saline. An aliquot (200 μl) was removed and placed in a test tube containing 200 μl of 1% Trypan blue. The cell number was determined in optical microscope using Neubauer's chamber. The cellular viability was determined considering viable the light-refracting cells.
After determining the number of cells, 1 ml of the suspension, containing 1×10^7 cells, was injected by intraperitoneal route, on the right side of the rats to obtain liquid tumor (ascites).
Five days after injection, the rats with ascites were sacrificed and the ascetic fluid collected from the peritoneal cavity and placed in a test tube containing EDTA. The liquid was diluted 100 times with phosphate-buffered saline (PBS), pH 7.4. The cell count was done after dilution with Trypan blue, as described above. Tumor cell count was ascertained to 1×10^6 cells in 100 μl, by dilution with PBS. This number of cells was determined in preliminary tests for induction of cancer pain in rats. In this final cell number adjustment, the volume of antibiotic (Benzetacil®) added to the suspension (150,000 units of antibiotic/10 ml of suspension), was taken into consideration. The antibiotic was used in order to avoid microbial contamination. The cells were injected by intraplantar route into one of the rat hind paws. Control animals were injected with PBS into the contralateral paw, in the same experimental conditions.
Hyperalgesia, allodynia and spontaneous pain were determined before (BM-basal measurement) and 5 days after tumor cell injection, before (IM-initial measurement) and 2 hours after (FM-Final measurement) peptide administration.
The results were analyzed comparing the mean values of the basal and initial measurements, or of the initial and final measurements or, when determined, by comparing the mean values obtained in the different experimental groups (Tables 17, 18, 19).
For this purpose, the animals were treated with CTOP, a specific μ receptor antagonist (20 μg/paw), nor-BNI, a specific κ receptor antagonist (50 μg/paw) or with ICI 174,864, a specific δ receptor antagonist (10 μg/paw). The antagonists were injected by intraplantar route. The peptide was administered in the dose of 6 μg/kg, orally, immediately before the injection of the opioid antagonists. The results were analyzed comparing the mean values of the basal and initial measurements, or of the initial and final measurements or, when determined, by comparing the mean values obtained in the different experimental groups ( Table 20).

[2] = test system: carrageenin-induced hyperalgesia; experiment: rat paw pressure test, carrageenin-induced hyperalgesia; format: in vivo; conditions: for pain threshold, IM (g) ± S.E.M.: saline + antagonist alone i.pl. (CTOP 20, nor-BNI 50, ICI 174.864 10 μg/paw), before carrageenin; for pain threshold, FM (g) ± S.E.M: saline + antagonist alone i.pl. with carrageenin (CTOP 20, nor-BNI 50, ICI 174.864 10 μg/paw), after carrageenin
Experimental: The antinociceptive effect of the synthetic peptide was evaluated in the inflammatory hyperalgesia induced by carrageenin. […] Saline, administered by the same route was used as control.
As determined in the PGE2 model, the participation of opioid receptors in the antinociceptive effect of the peptide SEQ ID NO: 2 in the carrageenin-induced hyperalgesia (Table 10) was investigated. Therefore, the animals were treated with CTOP, a specific μ receptor antagonist (20 μg/paw), nor-BNI, a specific κ receptor antagonist (50 μg/paw) or with ICI 174.864, a specific δ receptor antagonist (10 μg/paw), injected by i.pl. route concomitantly to carrageenin. Peptide was administered in the dose of 1 μg/kg, orally, immediately before carrageenin.

[3] = test system: hyperalgesia induced by chronic constriction of the sciatic nerve; experiment: hyperalgesia induced by chronic constriction of the sciatic nerve (rat paw pressure test); format: in vivo; conditions: saline + antagonist alone i.pl. (ICI 10, nor-BNI 50, CTOP 20 μg/paw); for pain threshold, FM 1 h: 1 h after treatment; for pain threshold, MF 3 h: 3 h after treatment; for pain threshold, BM: before surgery; for pain threshold, IM: day 14, before treatment
Experimental: For the induction of neuropathic pain, surgery was performed in the sciatic nerve, in accordance with the method described by Bennett, G. J and Xie, Y. K. (Pain, 33:87-107, 1988). The animals were anesthetized with halothane. The sciatic nerve was exposed in the middle region of the thigh, moving away the femoral biceps muscle. Close to the trifurcation of the sciatic nerve, 7 mm of distance from the trifurcation, 4 loose ligations were performed (chromed catgut 4-0) around it, distant from each other in approximately 1 mm. The bindings were performed along the nerve, up to 4-5 mm from the initial point. The incision was sutured in layers, using silk suture thread number 4-0.
The test was applied before (BM-basal measurement) and on the 14th day after the surgery, to characterize the development of neuropathic pain.
The results were analyzed by comparing the means of the basal and initial measurements or by comparing the means of the initial and final measurements or, when determined, through the comparison of the means obtained in the different experimental groups.
For this purpose, the animals were treated with CTOP, a specific μ receptor antagonist (20 μg/paw), nor-BNI, a specific κ receptor antagonist (50 μg/paw) or with ICI 174,864, a specific δ receptor antagonist (10 μg/paw). The antagonists were injected, by intraplantar route. The peptide was administered in the dose of 5 μg/kg, orally, immediately before the injection of the opioid antagonists.
The results were analyzed comparing the mean values of the basal and initial measurements, or of the initial and final measurements or, when determined, by comparing the mean values obtained in the different experimental groups (Tables 15 and 16).

Compound	paw withdrawal threshold (allodynia), FM [1]	paw withdrawal threshold (allodynia), IM [1]	paw withdrawal threshold (allodynia), BM [1]	pain threshold, IM (g) ± S.E.M. [2] [g]	pain threshold, FM (g) ± S.E.M [2] [g]	pain threshold, FM 1 h [3] [g]	pain threshold, MF 3 h [3] [g]	pain threshold, BM [3] [g]	pain threshold, IM [3] [g]
Oc1ccc2c3c1O[C@H]1c4[nH]c5c(c4C[C@@]4(O)[C@@H](C2)N(CC2CC2)CC[C@]314)C[C@@]1(O)[C@H]2Cc3ccc(O)c4c3[C@@]1(CCN2CC1CC1)[C@H]5O4 [nor-BNI, nor-Binalthorphimine, reference compound]	4.41 ± 0.00 log 10 (mg × 10)	4.41 ± 0.00 log 10 (mg × 10)	4.97 ± 0.00 log 10 (mg × 10)	72 ± 1.12	52 ± 2.79	32 ± 1.22	31 ± 1.00	72 ± 1.22	32 ± 1.22
CTOP [reference compound]	4.41 ± 0.00 log 10 (mg × 10)	4.41 ± 0.00 log 10 (mg × 10)	4.97 ± 0.00 log 10 (mg × 10)	73 ± 1.25	49 ± 1.25	30 ± 1.58	30 ± 1.58	72 ± 1.22	28 ± 1.22
